# Assay results as given in patent US20230192660A1 (priority 2020, published 2023).
# Target: SARS-CoV-2 Mpro C145A mutant (Severe acute respiratory syndrome coronavirus 2, UniProt P0DTD1, C3408A)
# Type: binding
row,SMILES,ΔTm Mpro C145A [°C]
1,CC1(C)[C@@H]2[C@@H](C(=O)N[C@@H](C[C@@H]3CCNC3=O)C(=O)C(N)=O)N(C(=O)CCc3ccccc3)C[C@@H]21 [ML102],0
2,CNC(=O)C(=O)[C@H](C[C@@H]1CCNC1=O)NC(=O)[C@@H]1[C@@H]2[C@H](CN1C(=O)CCc1ccccc1)C2(C)C [ML102m],0
3,CNC(=O)C(=O)[C@H](C[C@@H]1CCNC1=O)NC(=O)[C@@H]1[C@@H]2[C@H](CN1C(=O)CNc1c(F)cc(F)cc1F)C2(C)C [ML104m],0
4,CC1(C)[C@@H]2[C@@H](C(=O)NC(C[C@@H]3CCNC3=O)C(=O)C(N)=O)N(C(=O)CNc3c(F)cc(F)cc3F)C[C@@H]21 (stereo partly shown) [ML104],0
5,COc1cccc2[nH]c(C(=O)N3C[C@H]4[C@@H]([C@H]3C(=O)N[C@@H](C[C@@H]3CCNC3=O)C(=O)C(N)=O)C4(C)C)cc12 [ML105],0
6,CC(C)(C)[C@H](NC(=O)C12CC(C1)C2)C(=O)N1C[C@H]2[C@@H]([C@H]1C(=O)N[C@@H](C[C@@H]1CCNC1=O)C(=O)C(N)=O)C2(C)C [ML1002],0.1
7,CNC(=O)C(=O)[C@H](C[C@@H]1CCNC1=O)NC(=O)[C@@H]1[C@@H]2[C@H](CN1C(=O)[C@@H](NC(=O)C13CC(C1)C3)C(C)(C)C)C2(C)C [ML1002m],0.1
